The values below come from patent US20050288347A1, “Certain triazole-based compounds, compositions, and uses thereof” (priority 2004, published 2005).

“Also recorded” adds a separate entry of the source.

The subject of the first assay is protein kinase. The assay can be described thus: HTS ATP-utilizing enzyme assay, off-chip mobility-shift format (Caliper HTS 250).
Conditions: not given
The assay is classed as biochemical, human. The procedure, abridged: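 Single-point screen at 10 μM compound in HEPES pH 7.5 buffer with Triton X-100 and BSA, 2.5 h at 20–22 °C. Substrate-to-phosphopeptide ratio measured by off-chip microfluidic mobility shift; EDTA wells as 100% and DMSO wells as 0% control, hits called at three-sigma limits.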
For the compound `COc1ccccc1-n1c(SCC2COc3ccccc3O2)nnc1-c1cccc(Cl)c1` (centres unmarked), the “protein kinase against which the compound exhibits inhibitory activity (Table 3)” value is “MAPKAPK-3”.

The same assay, now with this note: kinase(s) for which the compound exhibits protein kinase inhibitory activity; test compound 10 μM; active = greater than three-sigma from the mean activity of inactive compounds.
As to `Cc1ccc(-c2nnc(SCC(=O)O)n2-c2ccc(C)cc2)cc1` [2-(4,5-dip-tolyl-4H-1,2,4-triazol-3-ylthio)acetic acid], the Kinase result is given as “DAPK1”. With `O=C(O)CSc1nnc(-c2ccc(O)cc2)n1Cc1ccco1`, the Kinase result is “GSK3-β; also recorded: GSK3-α”. `Cn1c(SCC(=O)OC2CCCCC2)nnc1-c1ccc([N+](=O)[O-])cc1` [cyclohexyl 2-(4-methyl-5-(4-nitrophenyl)-4H-1,2,4-triazol-3-ylthio)acetate]: the Kinase result is “PDGFRR-α and FYN and FLT-3”. For `O=C(CSc1nnc(-c2ccncc2)n1-c1ccc(F)cc1)Nc1cccc(O)c1`, the Kinase entry is on record as “AURORA-A”. On the same count and under the same terms, in the case of `Cc1ccc(NCc2nnc(SCC(=O)NCc3ccco3)n2CC2CCCO2)c(C)c1` (centres unmarked) it was “PDGFRR-α and FYN”. Still for that read-out and setting: then `COC(=O)c1ccccc1NC(=O)CSc1nnc(CNc2ccc(F)cc2)n1CC1CCCO1` (centres unmarked), with “AURORA-A”; and `CCN(CC)S(=O)(=O)c1ccc(-c2nnc(SCC(=O)Nc3nccs3)n2CC)cc1`, with “GSK3-α; also recorded: GSK3-β”; and `CCOc1ccc(NCc2nnc(SCC(=O)O)n2-c2ccc(C)cc2)cc1`, with “FYN”. Take `CCn1c(CNc2ccc(Cl)cc2)nnc1SCC(=O)Nc1ccccc1`: the Kinase entry is given as “c-TAK1”.

On to `CCn1c(SCC(=O)c2ccc(OC)cc2)nnc1-c1ccncc1`, for which the Kinase result is “PKA and MAPKAPK-2 and MSK1”. For `Cn1cnnc1SCC(=O)N1c2ccccc2Sc2ccccc21` [2-(4-methyl-4H-1,2,4-triazol-3-ylthio)-1-(10H-phenothiazin-10-yl)ethanone], the Kinase result is on record as “LCK”.

Take `COc1ccc(-n2c(S)nnc2-c2cccnc2)cc1` [4-(4-methoxyphenyl)-5-(pyridin-3-yl)-4H-1,2,4-triazole-3-thiol]: the Kinase entry is “ABL1”. For the compound `Cn1c(SCC(=O)N2CCCC2)nnc1-c1ccc(S(=O)(=O)N2CCOCC2)cc1`, the Kinase result is given as “AURORA-A”. For the compound `COc1ccc(NC(=O)CSc2nnc(-c3ccccc3O)n2-c2ccccc2)c(OC)c1`, the Kinase result is reported as “CDK1”. On the same count and under the same terms, then `O=C(CSc1nnc(-c2ccc(O)cc2)n1-c1cccc(Cl)c1)NCc1ccccc1`, with “GSK3-α”; and `COc1ccccc1-n1c(SCC(=O)OCc2ccccc2)nnc1-c1ccccc1O`, with “KIT”; and `CCn1c(COc2ccc(Cl)c(C)c2)nnc1SCC(=O)O`, with “MSK1”. The same measure, in the same setting: then `COc1ccc(-n2c(SC(C)C(=O)O)nnc2-c2ccccc2)cc1` (centres unmarked) [2-(4-(4-methoxyphenyl)-5-phenyl-4H-1,2,4-triazol-3-ylthio)propanoic acid], with “AURORA-A”. `CCCOc1ccc(CCc2nnc(S)n2-c2ccccc2)cc1` [4-phenyl-5-(4-propoxyphenethyl)-4H-1,2,4-triazole-3-thiol]: the Kinase result is listed as “GSK3-β; also recorded: GSK3-α”.

Regarding `Cc1cc(C)nc(SCc2nnc(SCC(=O)Nc3ccccc3)n2-c2ccccc2)n1`, the Kinase result is given as “MAPKAPK-2”. The same measure, in the same setting: then `COc1cccc(OC(=O)CSc2nnc(CNc3c(C)cccc3C)n2-c2ccccc2)c1`, with “C-TAK1”; and `CCn1c(S)nnc1-c1ccc(S(=O)(=O)N2CCN(C)CC2)cc1`, with “GSK3-α; also recorded: GSK3-β”. On the same count and under the same terms, in the case of `C=C(C)Cn1c(S)nnc1-c1ccccc1Br` [5-(2-bromophenyl)-4-(2-methylallyl)-4H-1,2,4-triazole-3-thiol] it was “PDGFRR-α”; in that of `COc1ccccc1-n1c(SCC(=O)Nc2ccc3sc(C)nc3c2)nnc1-c1ccccc1O`, “CDK1”. For `Cc1ccc(NCc2nnc(SCC#N)n2-c2ccccc2)cc1Cl`, the Kinase result is “AURORA-A”.

For the compound `COc1ccc(-c2nnc(S)n2Cc2ccco2)cc1OC` [5-(3,4-dimethoxyphenyl)-4-(furan-2-ylmethyl)-4H-1,2,4-triazole-3-thiol], the Kinase result was “MSK2”. On the same count and under the same terms, in the case of `O=C(CSc1nnc(-c2ccc(O)cc2)n1Cc1ccco1)N1CCc2ccccc21` it was “AURORA-A”; in that of `COC(=O)c1ccccc1NC(=O)CSc1nnc(-c2ccccc2O)n1CCc1ccccc1`, “AURORA-A”; in that of `Sc1nnc(CNc2cccc(Cl)c2)n1-c1ccccc1` [5-((3-chlorophenylamino)methyl)-4-phenyl-4H-1,2,4-triazole-3-thiol], “GSK3-β; also recorded: GSK3-α”. With `Sc1nnc(C2CCCCC2)n1-c1cccc(Cl)c1` [4-(3-chlorophenyl)-5-cyclohexyl-4H-1,2,4-triazole-3-thiol], the Kinase result was “AURORA-A”.

Turning to `CCOC(=O)CN(C(=O)CSc1nnc(-c2ccccc2O)n1CCc1ccccc1)c1cccc([N+](=O)[O-])c1`, the Kinase result was “AURORA-A”. With `CCOc1ccc(NCc2nnc(SCC(N)=O)n2-c2ccccc2)cc1`, the Kinase result is “FYN and PDGFRR-α and FLT-3”. On to `O=C(CSc1nnc(Cc2ccccc2)n1C1CCCCC1)Nc1cccc(O)c1`, for which the Kinase result is on record as “AURORA-A”. Still for that read-out and setting: then `C=CCn1c(CSc2nc3ccccc3s2)nnc1SCC(=O)NCCO`, with “HCK”; and `O=C(CSc1nnc(-c2cccc(C(F)(F)F)c2)[nH]1)c1ccc2c(c1)OCCO2`, with “AURORA-A; also recorded: GSK3-α; also recorded: FLT-3”. In the case of `Cc1ccc(NCc2nnc(S)n2-c2ccccc2)cc1Cl`, the Kinase entry is recorded as “GSK3-β; also recorded: GSK3-α; also recorded: AURORA-A”.

Staying with this assay, now noted: test compound 10 μM; active = activity greater than three-sigma from the mean of the predominately inactive population for that enzyme.
Regarding `CCOC(=O)CCSc1nnc(-c2cccc(C(F)(F)F)c2)[nH]1` [ethyl 3-(5-(3-(trifluoromethyl)phenyl)-4H-1,2,4-triazol-3-ylthio)propanoate], the “protein kinase against which the compound exhibits inhibitory activity (Table 3)” value was “AURORA-A; also recorded: FLT-3; also recorded: GSK3-β”. Same read-out and setting: in the case of `COc1ccc(-n2c(CNc3ccc(C)cc3)nnc2SCc2ccccc2)cc1` it was “FLT-3; also recorded: PDGFRR-α”; in that of `CCc1nnc(SCC=C(C)C)n1Cc1ccc2c(c1)OCO2`, “GSK3-β; also recorded: GSK3-α”; in that of `CCn1c(CNc2ccc(OC)cc2)nnc1SCc1c(F)cccc1Cl`, “PDGFRR-α and FYN and FLT-3”. As to `COCCn1c(SCCN2CCOCC2)nnc1-c1cc2ccccc2cc1O`, the “protein kinase against which the compound exhibits inhibitory activity (Table 3)” value is “CHEK2”.

Regarding `COc1ccccc1-n1c(SCC(=O)c2ccc3c(c2)OCCO3)nnc1-c1cccc(Cl)c1`, the “protein kinase against which the compound exhibits inhibitory activity (Table 3)” value is reported as “ROCK2”. `COc1ccc(NCc2nnc(SCc3ccccc3)n2-c2ccc(OC)cc2)cc1`: the “protein kinase against which the compound exhibits inhibitory activity (Table 3)” value is “PDGFRR-α and FLT-3 and FYN”.

In the case of `Cc1ccc(CSc2nnc(-c3ccncc3)n2-c2ccccc2)cc1` [4-(5-(4-methylbenzylthio)-4-phenyl-4H-1,2,4-triazol-3-yl)pyridine], the “protein kinase against which the compound exhibits inhibitory activity (Table 3)” value was “AURORA-A”. In the case of `Clc1ccc(OCc2nnc(SCc3cccnc3)[nH]2)cc1` [3-((5-((4-chlorophenoxy)methyl)-4H-1,2,4-triazol-3-ylthio)methyl)pyridine], the “protein kinase against which the compound exhibits inhibitory activity (Table 3)” value is “FLT-3”. As for `COc1ccc(NCc2nnc(SCCN3CCCCC3)n2C)cc1`, the “protein kinase against which the compound exhibits inhibitory activity (Table 3)” value was “FYN and PDGFRR-α”. In the case of `COc1ccc(NCc2nnc(SCCN3CCCCC3)n2-c2ccc(OC)cc2)cc1`, the “protein kinase against which the compound exhibits inhibitory activity (Table 3)” value is reported as “FYN”.

For the compound `c1ccc(CCn2c(Cc3ccccc3)nnc2SCc2ccccc2)cc1` [3-benzyl-5-(benzylthio)-4-phenethyl-4H-1,2,4-triazole], the “protein kinase against which the compound exhibits inhibitory activity (Table 3)” value was “AURORA-A”. As for `COc1ccccc1-n1c(SCC(=O)Nc2cccc(NC(=O)C3CCCO3)c2)nnc1-c1ccccc1O` (centres unmarked), the “protein kinase against which the compound exhibits inhibitory activity (Table 3)” value was “AURORA-A”. As for `Cc1ccc(CCn2c(CCC3CCCC3)nnc2SCc2ccccc2)cc1`, the “protein kinase against which the compound exhibits inhibitory activity (Table 3)” value was “AURORA-A; also recorded: c-TAK1”. The same measure, in the same setting: in the case of `N#Cc1ccccc1CSc1nnc(-c2ccc(OC(F)(F)F)cc2)[nH]1` it was “AURORA-A”.

Take `O=C(CSc1nnc(-c2ccc(O)cc2)n1-c1ccccc1)NNC(=O)c1ccc(Cl)cc1`: the “protein kinase against which the compound exhibits inhibitory activity (Table 3)” value is “AURORA-A”. Still for that read-out and setting: then `O=[N+]([O-])c1ccc(-c2nnc(SCCN3CCOCC3)n2-c2ccccc2)cc1` [4-(2-(5-(4-nitrophenyl)-4-phenyl-4H-1,2,4-triazol-3-ylthio)ethyl)morpholine], with “PDGFRR-α”; and `COc1ccccc1-n1c(SCC(=O)Nc2ccccc2)nnc1-c1cccc(Cl)c1`, with “ROCK2”. Take `C(=C\c1ccccc1)/CSc1nnc(-c2ccncc2)n1-c1ccccc1` [(E)-4-(5-(cinnamylthio)-4-phenyl-4H-1,2,4-triazol-3-yl)pyridine]: the “protein kinase against which the compound exhibits inhibitory activity (Table 3)” value was “GSK3-β and GSK3-α and MSK1”. Same read-out and setting: then `CCN(CC)S(=O)(=O)c1ccc(-c2nnc(SCc3nnc(-c4ccccc4)o3)n2CC)cc1`, with “GSK3-α”. `C=CCn1c(CCC2CCCC2)nnc1SCC=C(C)C` [4-allyl-3-(2-cyclopentylethyl)-5-(3-methylbut-2-enylthio)-4H-1,2,4-triazole]: the “protein kinase against which the compound exhibits inhibitory activity (Table 3)” value is recorded as “DYRK2”.

Take `CS(=O)(=O)c1ccc(CSc2nnc(-c3ccc(Cl)c(Cl)c3)[nH]2)cc1` [3-(3,4-dichlorophenyl)-5-(4-(methylsulfonyl)benzylthio)-4H-1,2,4-triazole]: the “protein kinase against which the compound exhibits inhibitory activity (Table 3)” value is listed as “AURORA-A; also recorded: FLT-3”. As to `Cc1cc(OCc2nnc(SCCN3CCOCC3)n2Cc2ccccc2)ccc1Cl`, the “protein kinase against which the compound exhibits inhibitory activity (Table 3)” value is listed as “AURORA-A”. Regarding `CCn1c(SCC(=O)NNC(=O)Cc2ccccc2)nnc1-c1ccc(Cl)cc1`, the “protein kinase against which the compound exhibits inhibitory activity (Table 3)” value is on record as “FYN”.

As to `CCC(O)CSc1nnc(-c2cccc(Cl)c2)n1-c1ccccc1OC` (centres unmarked), the “protein kinase against which the compound exhibits inhibitory activity (Table 3)” value is “ROCK2”.
